From patent US9242970B2 (ACTELION PHARMACEUTICALS LTD., priority 2010, dated 2016)

Molecular target: human orexin-2 receptor (Homo sapiens (Human), UniProt O43614)
Assay: In vitro assay: intracellular calcium measurements (FLIPR), antagonistic activity
Type: cell-based
Details: CHO cells, 3 nM orexin-A, compound incubation 120 min; marked values are geometric means of n = 2-6; read-out: IC50 OX2
Protocol: (§1) In Vitro Assay: Intracellular Calcium Measurements:
(§2) Chinese hamster ovary (CHO) cells expressing the human orexin-1 receptor and the human orexin-2 receptor, respectively, are grown in culture medium (Ham F-12 with L-Glutamine) containing 300 µg/ml G418, 100 U/ml penicillin, 100 µg/ml streptomycin and 10% heat inactivated fetal calf serum (FCS). The cells are seeded at 20,000 cells/well into 384-well black clear bottom sterile plates (Greiner). The seeded plates are incubated overnight at 37° C. in 5% CO2.
(§3) Fluorescence is measured for each well at 1 second intervals, and the height of each fluorescence peak is compared to the height of the fluorescence peak induced by 3 nM orexin-A with vehicle in place of antagonist. […] Optimized conditions were achieved by adjustment of pipetting speed and cell splitting regime. The calculated IC50 values may fluctuate depending on the daily cellular assay performance. Fluctuations of this kind are known to those skilled in the art.

human orexin-2 receptor, sequence (O43614 whole entry): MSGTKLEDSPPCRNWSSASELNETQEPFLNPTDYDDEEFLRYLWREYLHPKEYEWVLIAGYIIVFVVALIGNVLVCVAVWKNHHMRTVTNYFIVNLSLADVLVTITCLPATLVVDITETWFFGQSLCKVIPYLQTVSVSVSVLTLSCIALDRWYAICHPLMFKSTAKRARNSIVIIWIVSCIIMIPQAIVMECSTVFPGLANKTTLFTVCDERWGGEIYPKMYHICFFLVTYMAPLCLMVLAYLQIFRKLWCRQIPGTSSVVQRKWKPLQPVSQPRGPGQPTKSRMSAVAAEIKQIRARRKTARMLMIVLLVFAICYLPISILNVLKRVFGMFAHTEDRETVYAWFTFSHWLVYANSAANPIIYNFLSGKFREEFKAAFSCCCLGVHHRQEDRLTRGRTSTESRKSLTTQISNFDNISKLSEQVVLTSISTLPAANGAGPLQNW

| Structure (SMILES) | IC50 [nM] |
| --- | --- |
| COc1cc(F)ccc1[C@@H]1C[C@@H](O)C(=O)N1Cc1ccc(OC(F)(F)F)cc1 (racemic) [Example 296, rac-(3R*,5S*)-5-(4-fluoro-2-methoxyphenyl)-3-hydroxy-1-(4-(trifluoromethoxy)benzyl)pyrrolidin-2-one] | 2210 |
| CCOc1ccccc1[C@@H]1C[C@H](F)C(=O)N1Cc1ccc(OC(F)(F)F)cc1 (racemic) [Example 300, rac-(3S*,5S*)-5-(2-ethoxyphenyl)-3-fluoro-1-(4-(trifluoromethoxy)benzyl)pyrrolidin-2-one] | 98 |
| COc1cc(F)ccc1[C@@H]1C[C@H](F)C(=O)N1Cc1ccc(OC(F)(F)F)cc1 (racemic) [Example 303, rac-(3S*,5S*)-3-fluoro-5-(4-fluoro-2-methoxyphenyl)-1-(4-(trifluoromethoxy)benzyl)pyrrolidin-2-one] | 143 |
| CCOc1c(F)cccc1[C@@H]1C[C@@H](O)C(=O)N1Cc1ccc(OC(F)(F)F)cc1 (racemic) [Example 310, rac-(3R*,5S*)-5-(2-ethoxy-3-fluorophenyl)-3-hydroxy-1-(4-(trifluoromethoxy)benzyl)pyrrolidin-2-one] | 1680 |

Molecular target: human orexin-1 receptor (Homo sapiens (Human), UniProt O43613)
Assay: as above
Type: cell-based
Details: CHO cells, 3 nM orexin-A, compound incubation 120 min; marked values are geometric means of n = 2-6; read-out: IC50 OX1
Protocol: as §1, §2, §3

human orexin-1 receptor, sequence (O43613 whole entry): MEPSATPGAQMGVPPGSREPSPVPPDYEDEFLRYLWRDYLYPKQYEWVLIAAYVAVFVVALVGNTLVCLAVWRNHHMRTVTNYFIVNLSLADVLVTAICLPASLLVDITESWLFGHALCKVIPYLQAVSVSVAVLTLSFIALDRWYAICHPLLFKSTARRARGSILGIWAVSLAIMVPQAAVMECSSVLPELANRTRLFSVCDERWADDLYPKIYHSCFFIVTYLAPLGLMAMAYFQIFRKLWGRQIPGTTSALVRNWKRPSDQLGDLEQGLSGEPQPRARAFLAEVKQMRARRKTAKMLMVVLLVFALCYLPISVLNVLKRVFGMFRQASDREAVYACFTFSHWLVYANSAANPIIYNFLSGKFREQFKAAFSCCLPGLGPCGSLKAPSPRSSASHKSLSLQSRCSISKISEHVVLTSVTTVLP

| Structure (SMILES) | IC50 [nM] |
| --- | --- |
| COc1cccc(F)c1[C@@H]1C[C@@H](O)C(=O)N1Cc1ccc(OC(F)(F)F)cc1 (racemic) [Example 293, rac-(3R*,5S*)-5-(2-fluoro-6-methoxyphenyl)-3-hydroxy-1-(4-(trifluoromethoxy)benzyl)pyrrolidin-2-one] | 2750 |
| COc1cccc(Cl)c1[C@@H]1C[C@@H](O)C(=O)N1Cc1ccc(OC(F)(F)F)cc1 (racemic) [Example 294, rac-(3R*,5S*)-5-(2-chloro-6-methoxyphenyl)-3-hydroxy-1-(4-(trifluoromethoxy)benzyl)pyrrolidin-2-one] | 2440 |
| O=C1[C@@H](Cl)C[C@@H](c2cccc3c2OCCO3)N1Cc1ccc(OC(F)(F)F)cc1 (racemic) [Example 307, rac-(3S*,5S*)-3-chloro-5-(2,3-dihydrobenzo[b][1,4]dioxin-5-yl)-1-(4-(trifluoromethoxy)benzyl)pyrrolidin-2-one] | 563 |
| COc1ccc2ccccc2c1[C@@H]1C[C@H](F)C(=O)N1Cc1ccc(OC(F)(F)F)cc1 (racemic) [Example 315, rac-(3S*,5S*)-3-fluoro-5-(2-methoxynaphthalen-1-yl)-1-(4-(trifluoromethoxy)benzyl)pyrrolidin-2-one] | 1200 |
| COc1c(F)ccc(F)c1[C@@H]1C[C@@H](Cl)C(=O)N1Cc1ccc(OC(F)(F)F)cc1 (racemic) [Example 317, rac-(3R*,5S*)-3-chloro-5-(3,6-difluoro-2-methoxyphenyl)-1-(4-(trifluoromethoxy)benzyl)pyrrolidin-2-one] | 1070 |
| COc1c(F)ccc(F)c1[C@@H]1C[C@H](Cl)C(=O)N1Cc1ccc(OC(F)(F)F)cc1 (racemic) [Example 320, rac-(3S*,5S*)-3-chloro-5-(3,6-difluoro-2-methoxyphenyl)-1-(4-(trifluoromethoxy)benzyl)pyrrolidin-2-one] | 1050 |
| O=C1[C@H](Cl)C[C@@H](c2cccc3c2OCCO3)N1Cc1ccc(OC(F)(F)F)cc1 (racemic) [Example 322, rac-(3R*,5S*)-3-chloro-5-(2,3-dihydrobenzo[b][1,4]dioxin-5-yl)-1-(4-(trifluoromethoxy)benzyl)pyrrolidin-2-one] | 1080 |
| COc1cccc(C)c1[C@@H]1C[C@H](F)C(=O)N1Cc1ccc(OC(F)(F)F)cc1 (racemic) [Example 325, rac-(3S*,5S*)-3-fluoro-5-(2-methoxy-6-methylphenyl)-1-(4-(trifluoromethoxy)benzyl)pyrrolidin-2-one] | 1380 |
| CCOc1c(F)cccc1[C@@H]1C[C@@H](Cl)C(=O)N1Cc1ccc(OC(F)(F)F)cc1 (racemic) [Example 327, rac-(3R*,5S*)-3-chloro-5-(2-ethoxy-3-fluorophenyl)-1-(4-(trifluoromethoxy)benzyl)pyrrolidin-2-one] | 1060 |
| COc1ccc(F)c(OC)c1[C@@H]1C[C@@H](Cl)C(=O)N1Cc1ccc(OC(F)(F)F)cc1 (racemic) [Example 328, rac-(3R*,5S*)-3-chloro-5-(3-fluoro-2,6-dimethoxyphenyl)-1-(4-(trifluoromethoxy)benzyl)pyrrolidin-2-one] | 739 |
| CCOc1c(F)cccc1[C@@H]1C[C@H](Cl)C(=O)N1Cc1ccc(OC(F)(F)F)cc1 (racemic) [Example 329, rac-(3S*,5S*)-3-chloro-5-(2-ethoxy-3-fluorophenyl)-1-(4-(trifluoromethoxy)benzyl)pyrrolidin-2-one] | 885 |
| COc1ccc(F)c(OC)c1[C@@H]1C[C@H](Cl)C(=O)N1Cc1ccc(OC(F)(F)F)cc1 (racemic) [Example 330, rac-(3S*,5S*)-3-chloro-5-(3-fluoro-2,6-dimethoxyphenyl)-1-(4-(trifluoromethoxy)benzyl)pyrrolidin-2-one] | 227 |
| CCOc1ccc(F)c(F)c1[C@@H]1C[C@H](Cl)C(=O)N1Cc1ccc(OC(F)(F)F)cc1 (racemic) [Example 339, rac-(3S*,5S*)-3-chloro-5-(6-ethoxy-2,3-difluorophenyl)-1-(4-(trifluoromethoxy)benzyl)pyrrolidin-2-one] | 816 |
| CCOc1cc(F)ccc1[C@@H]1C[C@H](F)C(=O)N1Cc1ccc(OC(F)(F)F)cc1 (racemic) [Example 344, rac-(3S*,5S*)-5-(2-ethoxy-4-fluorophenyl)-3-fluoro-1-(4-(trifluoromethoxy)benzyl)pyrrolidin-2-one] | 1800 |
| CCOc1ccc(F)c(F)c1[C@@H]1C[C@@H](Cl)C(=O)N1Cc1ccc(OC(F)(F)F)cc1 (racemic) [Example 346, rac-(3R*,5S*)-3-chloro-5-(6-ethoxy-2,3-difluorophenyl)-1-(4-(trifluoromethoxy)benzyl)pyrrolidin-2-one] | 2850 |
| COc1cccc(OC)c1[C@@H]1C[C@@H](F)C(=O)N1Cc1ccc2oc3ccccc3c2c1 (racemic) [Example 368, rac-(3R*,5S*)-1-(dibenzo[b,d]furan-2-ylmethyl)-5-(2,6-dimethoxyphenyl)-3-fluoropyrrolidin-2-one] | 23 |
| CC(C)Oc1cccc(F)c1[C@@H]1C[C@H](F)C(=O)N1Cc1ccc(OC(F)(F)F)cc1 (racemic) [Example 407, rac-(3S*,5S*)-3-fluoro-5-(2-fluoro-6-isopropoxyphenyl)-1-(4-(trifluoromethoxy)benzyl)pyrrolidin-2-one] | 678 |
| CC(C)Oc1cccc(F)c1[C@@H]1C[C@H](Cl)C(=O)N1Cc1ccc(OC(F)(F)F)cc1 (racemic) [Example 409, rac-(3S*,5S*)-3-chloro-5-(2-fluoro-6-isopropoxyphenyl)-1-(4-(trifluoromethoxy)benzyl)pyrrolidin-2-one] | 323 |
| CCOc1cccc(Cl)c1[C@@H]1C[C@@H](O)C(=O)N1Cc1ccc(OC(F)(F)F)cc1 (racemic) [Example 427, rac-(3R*,5S*)-5-(2-chloro-6-ethoxyphenyl)-3-hydroxy-1-(4-(trifluoromethoxy)benzyl)pyrrolidin-2-one] | 1230 |
| COc1cccc(F)c1[C@@H]1C[C@@H](O)C(=O)N1Cc1cccc(OC(F)(F)F)c1 (racemic) [Example 430, rac-(3R*,5S*)-5-(2-fluoro-6-methoxyphenyl)-3-hydroxy-1-(3-(trifluoromethoxy)benzyl)pyrrolidin-2-one] | 5360 |
| CCOc1cccc(F)c1[C@@H]1C[C@H](F)C(=O)N1Cc1ccc(OC(F)(F)F)c(Cl)c1 (racemic) [Example 461, rac-(3S*,5S*)-1-(3-chloro-4-(trifluoromethoxy)benzyl)-5-(2-ethoxy-6-fluorophenyl)-3-fluoropyrrolidin-2-one] | 724 |
| CCOc1cccc(F)c1[C@@H]1C[C@H](Cl)C(=O)N1Cc1ccc(OC(F)(F)F)c(Cl)c1 (racemic) [Example 462, rac-(3S*,5S*)-3-chloro-1-(3-chloro-4-(trifluoromethoxy)benzyl)-5-(2-ethoxy-6-fluorophenyl)pyrrolidin-2-one] | 405 |
| COc1cccc(OC)c1C1CCCC(=O)N1Cc1ccc2ccccc2n1 (centres unmarked) [Example 4, 6-(2,6-dimethoxyphenyl)-1-(quinolin-2-ylmethyl)piperidin-2-one] | 174 |
| COc1cccc(OC)c1C1CCCC(=O)N1Cc1ccc2ccccc2n1 (centres unmarked) [Example 4a, 6-(2,6-dimethoxyphenyl)-1-(quinolin-2-ylmethyl)piperidin-2-one] | 16 |
| COc1cccc(OC)c1C1CCCC(=O)N1Cc1ccc2ccccc2n1 (centres unmarked) [Example 4b, 6-(2,6-dimethoxyphenyl)-1-(quinolin-2-ylmethyl)piperidin-2-one] | 1420 |
| COc1cccc(OC)c1C1CCCC(=O)N1Cc1cnc(OC(F)F)c(C2CC2)c1 (centres unmarked) [Example 70, 1-((5-cyclopropyl-6-(difluoromethoxy)pyridin-3-yl)methyl)-6-(2,6-dimethoxyphenyl)piperidin-2-one] | 1780 |

Same assay, conditions: CHO cells, 3 nM orexin-A, compound incubation time of 10 min; marked values are geometric means of n = 2-6; read-out: IC50 OX1

| Structure (SMILES) | IC50 [nM] |
| --- | --- |
| COc1cccc(F)c1[C@@H]1C[C@H](O)C(=O)N1Cc1ccc(OC(F)(F)F)cc1 (racemic) [Example 265, rac-(3S*,5S*)-5-(2-fluoro-6-methoxyphenyl)-3-hydroxy-1-(4-(trifluoromethoxy)benzyl)pyrrolidin-2-one] | 730 |
| CCOc1cccc(OCC)c1C1CCCC(=O)N1Cc1ccc(OC(F)(F)F)cc1 (centres unmarked) [Example 231, 6-(2,6-diethoxyphenyl)-1-(4-(trifluoromethoxy)benzyl)piperidin-2-one] | 550 |
